# Read-outs that look alike come from different tables or passages of the source.
# Columns and labels:
# [1] = tested on: Ad serotypes from Species A, B, C, D, E, and F in HEp-2 cells; conditions: cited from earlier work
# [2] = tested on: Ad5; test: HDP-CDV in Ad5-infected normal and CP-immunosuppressed Syrian hamsters; assay type: in vivo; conditions: 2.5 mg/kg oral gavage daily for 6 days, Days 3 and 6
# Experimental: FIGS. 12A-12D are graphical representations illustrating HDP-CDV decreasing adenovirus induced liver toxicity and viral load.
# Syrian hamsters (females, average weight 98 g) were immunosuppressed with twice weekly injections of cyclophosphamide (starting on Day −6; 140 mg/kg i.p. for the first dose, then 100 mg/kg). On Day 0, the animals were injected intravenously (into the jugular vein) with 1.9×10^12 vp/kg (ca. 3×10^10 PFU/animal) of Ad5 or AdCMVpA, and half of them were treated with HDPCDV (2.5 mg/kg via oral gavage daily for 6 days, starting on Day −1). On Days 3 and 6, hamsters were sacrificed and their sera were analyzed for transaminases (panel A=ALT; panel B=AST) and bilirubin (panel C). Infectious virus titers in the liver were determined, by TCID50 assays; the dashed line in the graph marks the threshold of quantifiability, horizontal lines represent group means, n-4, except for clinical chemistry for the Ad5 CP group on Day 6 (n=2); the error bars represent standard deviation.
# [3] = tested on: Ad5; test: HDP-CDV in Ad5-infected immunosuppressed mice; assay type: in vivo; conditions: daily 2.5 mg/kg oral gavage
# Experimental: Immunocompetent mice and mice immunosuppressed with CP were injected intravenously with 1.5×10^11 vp/kg of Ad5 or AdCMVpA, a replication defective adenovirus. Half of the animals in each group were treated via oral gavage with daily doses of 2.5 mg/kg of HDP-CDV, starting a day before virus injection. At the indicated times, mice were sacrificed and infectious virus titers in the liver were determined.
# [4] = tested on: HaK tumors; assay type: in vivo, hamsters; conditions: CP twice weekly
# Experimental: In an illustrative example, a tumor experiment in hamsters immunosuppressed with cyclophosphamide (CP) was conducted. Hamsters with very large (about 1.1 ml mean) established tumors (formed by the hamster renal cancer cell line named HaK) were treated with CP on day 1, then starting on day 4 the tumors were injected with VRX-007, Ad5, or buffer. CP was administered twice weekly throughout the study. […] Established large, about 1.1 ml, subcutaneous HaK tumors were injected intratumorally (6 injections, 1×10^10 PFU each) with VRX-007, wild-type Ad5, or vehicle (saline only). For each of these treatments, one group was immunosuppressed with CP and one group remained immunocompetent. Tumor volumes were measured with digital calipers twice per week. […] The tumors are from the 42 day time point.
# [5] = tested on: Ad5; conditions: cotton rat; cited from earlier work
# [6] = tested on: Ad; conditions: cited from earlier work
# [7] = tested on: Ad5; conditions: rabbit; cited from earlier work
# [8] = in vivo; cited from earlier work
# [9] = tested on: Ad serotypes 1, 2, 5, and 8; conditions: cited from earlier work
# [10] = tested on: Ad ocular infections; conditions: large multi-center trial, humans, cited from earlier work
# [11] = tested on: VRX-007; test: Cidofovir inhibition of VRX-007 replication in A549 cells (crystal violet staining); assay type: cell-based, human adenovirus; conditions: 10 or 0.1 PFU/cell, stained seven days post infection
# Experimental: A549 cells were mock-infected or infected with 10 or 0.1 plaque-forming units (PFU)/cell of VRX-007. Concomitantly, cidofovir was added to the medium at the indicated concentrations. The cells were stained with crystal violet dye at seven days post infection. Cidofovir has shown some efficacy in the rabbit and cotton rat models of ocular models of Ad5 infection.
# [12] = prospective study, eight pediatric stem cell transplant patients
smiles,measurement,setting,value
NC(=O)c1ncn([C@@H]2O[C@H](CO)[C@@H](O)[C@H]2O)n1 [ribavirin],inhibition of Ad replication by species,[1],Only Species C was inhibited
"CCCCCCCCCCCCCCCCOCCCOP(=O)(O)CO[C@H](CO)Cn1ccc(N)nc1=O [HDP-CDV, Hexadecyloxypropyl-cidofovir]","adenoviral loads (infectious virus titers in the liver, TCID50)",[2],effectively and significantly reduces
same,"liver toxicity (ALT, AST, bilirubin)",[2],effectively and significantly reduces liver toxicity
same,replication of Ad5 (infectious virus titers in the liver),[3],suppressing the replication
"O=P1(N(CCCl)CCCl)NCCCO1 (stereo not shown) [CP, cyclophosphamide]",growth of buffer-injected tumors,[4],did not affect growth
same,total white blood cell (WBC) count,CP twice weekly,dropped to very low levels by day 12
same,hemoglobin level (average),"CP-treated hamsters, end of experiment (42 days), 15.95 g/dl at the start",6.95 g/dL
same,red blood cells (RBC),"CP-treated hamsters, end of experiment, 8.39×10^6/mm^3 at the start",3.96×10^6 mm^3
"Nc1ccn(C[C@@H](CO)OCP(=O)(O)O)c(=O)n1 [cidofovir, (S)-9-[3-hydroxy-2-(phosphonomethyloxy)propyl] cytosine]",efficacy in ocular model of Ad5 infection,[5],some efficacy
same,inhibition of Ad replication by species,[1],"inhibited replication in HEp-2 cells of serotypes from Species A, B, D, E, and F"
same,toxicity of systemic use,[6]; accumulation of the drug in renal proximal tubules,nephrotoxicity
same,efficacy against Ad-associated hemorrhagic cystitis and renal dysfunction,[6]; bone marrow transplant patients,effective
same,resolution of Ad infection in case reports,"[6]; disseminated Ad in pediatric liver transplant patient, Ad7 in B cell lymphoma adult patient with meningoencephalitis",seemed to resolve
same,efficacy against Ad,[6]; patients immunosuppressed because of stem cell and bone marrow transplants,some efficacy
same,dose-limiting nephrotoxicity,[6]; [12],without dose-limiting nephrotoxicity
same,suppression of Ad,[6]; [12],seemed to provide long term suppression of Ad
same,efficacy in ocular model of Ad5 infection,[7],some efficacy
same,oral bioavailability,[8],poor oral bioavailability
same,inhibition of Ad replication in cell culture,[9],"potent, nontoxic inhibitor"
same,efficacy against Ad ocular infections,[10],Significant efficacy
same,efficacy/toxicity ratio,[10]; trial discontinued,narrow efficacy/toxicity ratio
same,inhibition of replication of VRX-007,[11],inhibits the replication

# — patent publication US9011820B2, “Screening tool for antiviral agents” (Saint Louis University, priority 2007, dated 2015)
